What was measured:
Format in all cases: functional
Mus musculus [1] = experiment: Analgesic activity in Mus musculus NMRI (mouse) assessed as inhibition of late phase of formalin-induced nociception at 30 umol/kg, ip administered 30 min before formalin injection relative to control
Mus musculus [2] = experiment: Analgesic activity in Mus musculus NMRI (mouse) assessed as inhibition of late phase of formalin-induced nociception at 30 umol/kg, ip administered 30 min before formalin injection relative to mefenamic acid
Mus musculus [3] = experiment: Analgesic activity in Mus musculus NMRI (mouse) assessed as inhibition of early phase of formalin-induced nociception at 30 umol/kg, ip administered 30 min before formalin injection relative to control

Row | SMILES | inhibition in vivo at 30 µmol/kg (Mus musculus [1]) [%] | Ratio (Mus musculus [2]) | inhibition in vivo at 30 µmol/kg (Mus musculus [3]) [%]
1 | Nc1nnc(-c2ccccc2S(=O)(=O)c2ccccc2)o1 | 68.3 | 0.91 | 40.5
2 | Nc1nnc(-c2ccccc2Sc2ccccc2Cl)o1 | 67.1 | 0.89 | 26.7
3 | S=c1[nH]nc(-c2ccccc2Sc2ccccc2)[nH]1 | 79.6 | 1.06 | 49.4
4 | [O-][S+](c1ccccc1)c1ccccc1-c1n[nH]c(=S)[nH]1 (stereo not given) | 63.3 | 0.85 | 31.7
5 | O=S(=O)(c1ccccc1)c1ccccc1-c1n[nH]c(=S)[nH]1 | 64.9 | 0.87 | 31.2
6 | S=c1[nH]nc(-c2ccccc2Sc2ccccc2)o1 | 71.3 | 0.95 | 13.1
7 | [O-][S+](c1ccccc1)c1ccccc1-c1n[nH]c(=S)o1 (stereo not given) | 86.1 | 1.15 | 40.9
8 | O=S(=O)(c1ccccc1)c1ccccc1-c1n[nH]c(=S)o1 | 58 | 0.77 | 41.9
9 | S=c1[nH]nc(-c2ccccc2Sc2ccccc2Cl)o1 | 80.5 | 1.06 | 16.8
10 | Nc1nnc(-c2ccccc2Sc2ccccc2)o1 | 63.7 | 0.85 | 16.6
11 | Nc1nnc(-c2ccccc2[S+]([O-])c2ccccc2)o1 (stereo not given) | 79.9 | 1.07 | 29.4
12 | Cc1cccc(Nc2ccccc2C(=O)O)c1C [MEFENAMIC ACID] | 74.9 | – | 24.1

— ChEMBL document CHEMBL3044658, “Synthesis and analgesic activity of new 1,3,4-oxadiazoles and 1,2,4-triazoles” (2011)
